According to ChEMBL document CHEMBL3400053, “trans-3,4-Disubstituted pyrrolidines as inhibitors of the human aspartyl protease renin. Part II: prime site exploration using an oxygen linker” (Bioorg Med Chem Lett, 2015):

How the values were obtained:
[1] = target: Cathepsin D (Homo sapiens, UniProt P07339); assay: Inhibition of cathepsin D (unknown origin)
[2] = Volume of distribution at steady state in cannulated fed Sprague-Dawley rat at 2 mg/kg, iv; assay type: ADME, organism-based; parameters: dose 2 mg/kg, route intravenous; settings: in vivo, read-out: Vdss
[3] = target: T1, Renin (Homo sapiens, UniProt P00797); assay: Inhibition of human recombinant renin by TR-FRET assay
T1 sequence (P00797 whole entry): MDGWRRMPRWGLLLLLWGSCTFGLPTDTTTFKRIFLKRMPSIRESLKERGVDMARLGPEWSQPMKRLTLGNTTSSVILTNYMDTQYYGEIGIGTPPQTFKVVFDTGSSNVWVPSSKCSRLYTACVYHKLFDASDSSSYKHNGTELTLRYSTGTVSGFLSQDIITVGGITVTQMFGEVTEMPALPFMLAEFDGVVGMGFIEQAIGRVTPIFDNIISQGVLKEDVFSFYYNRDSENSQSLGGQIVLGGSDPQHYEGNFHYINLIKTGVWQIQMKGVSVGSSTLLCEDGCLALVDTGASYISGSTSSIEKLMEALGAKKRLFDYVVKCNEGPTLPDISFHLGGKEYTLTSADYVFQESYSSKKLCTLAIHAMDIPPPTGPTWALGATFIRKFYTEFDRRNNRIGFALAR

[4] = target: T2, Cathepsin E (Homo sapiens, UniProt P14091); assay: Inhibition of cathepsin E (unknown origin)
T2 sequence (P14091 whole entry): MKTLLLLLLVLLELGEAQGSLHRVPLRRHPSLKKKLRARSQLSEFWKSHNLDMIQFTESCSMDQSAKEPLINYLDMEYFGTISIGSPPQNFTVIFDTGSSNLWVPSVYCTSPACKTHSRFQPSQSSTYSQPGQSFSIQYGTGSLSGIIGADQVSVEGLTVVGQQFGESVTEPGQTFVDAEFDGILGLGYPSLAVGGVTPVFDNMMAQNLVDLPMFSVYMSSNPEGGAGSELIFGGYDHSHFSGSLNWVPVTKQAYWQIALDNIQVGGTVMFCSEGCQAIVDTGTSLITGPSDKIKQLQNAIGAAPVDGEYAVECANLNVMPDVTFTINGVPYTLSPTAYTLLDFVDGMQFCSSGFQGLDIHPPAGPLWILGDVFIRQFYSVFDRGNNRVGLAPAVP

[5] = target: Pepsin A (Homo sapiens, UniProt P0DJD9); assay: Inhibition of pepsin A (unknown origin)
[6] = Half life in cannulated fed Sprague-Dawley rat at 2 mg/kg, iv; assay type: ADME, organism-based; parameters: dose 2 mg/kg, route intravenous; settings: in vivo
[7] = system: Rattus norvegicus; assay: Reduction in mean arterial blood pressure in hypertensive telemetered double-transgenic rat overexpressing human renin and angiotensinogen at 6 mg/kg, po; assay type: functional
[8] = target: T3, Gastricsin (Homo sapiens, UniProt P20142); assay: Inhibition of pepsin C (unknown origin)
T3 sequence (P20142 whole entry): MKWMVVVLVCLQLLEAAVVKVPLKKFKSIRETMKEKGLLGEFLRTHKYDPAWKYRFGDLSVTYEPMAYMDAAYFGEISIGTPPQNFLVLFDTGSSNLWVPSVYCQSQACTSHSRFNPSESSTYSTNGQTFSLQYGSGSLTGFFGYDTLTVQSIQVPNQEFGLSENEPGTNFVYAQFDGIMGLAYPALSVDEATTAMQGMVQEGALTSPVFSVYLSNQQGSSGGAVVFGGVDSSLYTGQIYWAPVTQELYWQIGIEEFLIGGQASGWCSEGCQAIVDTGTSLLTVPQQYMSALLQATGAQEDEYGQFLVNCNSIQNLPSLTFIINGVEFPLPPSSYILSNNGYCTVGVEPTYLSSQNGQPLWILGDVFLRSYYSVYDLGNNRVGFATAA

[9] = system: Rattus norvegicus; assay: AUC (0 to 24 hrs) in cannulated fed Sprague-Dawley rat at 6 mg/kg, po; assay type: ADME, organism-based, Plasma; parameters: time < 24 hr, dose 6 mg/kg, route oral; settings: in vivo
[10] = target: Cytochrome P450 2D6 (Homo sapiens, UniProt P10635); assay: Inhibition of CYP2D6 (unknown origin); assay type: ADME
Cytochrome P450 2D6, sequence (P10635 whole entry): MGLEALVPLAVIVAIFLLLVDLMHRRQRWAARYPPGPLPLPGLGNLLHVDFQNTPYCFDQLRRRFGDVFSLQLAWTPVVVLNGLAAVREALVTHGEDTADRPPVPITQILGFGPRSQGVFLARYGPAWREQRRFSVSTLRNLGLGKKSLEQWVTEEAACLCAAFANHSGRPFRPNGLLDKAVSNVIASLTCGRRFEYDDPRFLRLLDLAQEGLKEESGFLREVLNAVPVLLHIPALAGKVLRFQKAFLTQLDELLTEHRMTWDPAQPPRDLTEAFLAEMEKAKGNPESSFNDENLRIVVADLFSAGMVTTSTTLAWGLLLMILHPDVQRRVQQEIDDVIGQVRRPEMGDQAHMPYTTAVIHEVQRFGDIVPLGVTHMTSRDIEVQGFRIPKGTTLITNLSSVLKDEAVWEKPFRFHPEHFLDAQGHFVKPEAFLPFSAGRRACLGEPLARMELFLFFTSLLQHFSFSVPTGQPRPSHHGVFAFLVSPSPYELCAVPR

Pepsin A, sequence (P0DJD9 whole entry): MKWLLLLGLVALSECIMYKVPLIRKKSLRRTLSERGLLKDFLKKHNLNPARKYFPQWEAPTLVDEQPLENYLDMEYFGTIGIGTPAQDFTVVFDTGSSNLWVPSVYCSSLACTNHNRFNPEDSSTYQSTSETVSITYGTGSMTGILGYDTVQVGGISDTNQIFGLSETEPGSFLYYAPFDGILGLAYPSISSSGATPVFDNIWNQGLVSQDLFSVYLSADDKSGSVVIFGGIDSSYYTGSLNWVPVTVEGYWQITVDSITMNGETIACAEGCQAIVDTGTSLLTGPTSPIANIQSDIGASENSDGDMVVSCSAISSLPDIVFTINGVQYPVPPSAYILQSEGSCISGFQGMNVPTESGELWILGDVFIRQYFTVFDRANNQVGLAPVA
Cathepsin D, sequence (P07339 65-162 limits assumed): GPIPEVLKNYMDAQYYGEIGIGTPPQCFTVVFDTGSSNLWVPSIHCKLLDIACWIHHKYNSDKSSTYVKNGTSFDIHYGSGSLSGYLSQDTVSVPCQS
Cathepsin D, sequence (P07339 169-412 limits assumed): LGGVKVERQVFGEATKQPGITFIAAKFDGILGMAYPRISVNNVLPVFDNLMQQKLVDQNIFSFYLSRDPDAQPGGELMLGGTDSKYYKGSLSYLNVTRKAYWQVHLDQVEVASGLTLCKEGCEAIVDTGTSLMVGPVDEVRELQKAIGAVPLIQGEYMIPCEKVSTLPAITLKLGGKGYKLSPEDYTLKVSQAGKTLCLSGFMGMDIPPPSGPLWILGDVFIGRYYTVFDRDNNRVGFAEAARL

COCCCOc1cc(C(=O)N(C[C@@H]2CNC[C@H]2OC(=O)NCc2ccccc2)C(C)C)ccc1OC
IC50 [1]: > 30 µM
Vd [2]: 4.9 L/kg
IC50 [3]: 0.04 µM
IC50 [4]: > 30 µM
IC50 [5]: > 30 µM
half-life [6]: 2.2 h
Activity [7]: 43 mmHg
IC50 [8]: > 30 µM
AUC [9]: 0.468 µM·h
IC50 [10]: > 20 µM
